These results are taken from BindingDB's records for doi:10.1021/jm9011609 (University of Manchester, 2009).

The experiment has as its target NAD(P)H dehydrogenase [quinone] 1 (Homo sapiens, UniProt P15559). Description: Inhibition of NQO1 (With 2 uM BSA). Conditions: pH 7.5. How it is done:
On some occasions, potential inhibitors were dissolved in 0.13 M NaOH. Reactions were carried out at 25 deg C and cytochrome c reduction was monitored at 550nm in a BeckmanDU650 spectrophotometer.

Sequence of NAD(P)H dehydrogenase [quinone] 1 (P15559 whole entry): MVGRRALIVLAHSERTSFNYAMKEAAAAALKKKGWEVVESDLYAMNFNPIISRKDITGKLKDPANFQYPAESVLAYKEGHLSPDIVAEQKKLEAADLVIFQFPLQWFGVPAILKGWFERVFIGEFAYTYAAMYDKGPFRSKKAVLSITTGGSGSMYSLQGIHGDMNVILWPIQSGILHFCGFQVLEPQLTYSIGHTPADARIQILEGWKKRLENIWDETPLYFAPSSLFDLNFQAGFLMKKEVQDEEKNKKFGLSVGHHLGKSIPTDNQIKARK

As a reminder, the IC50 is the concentration needed to halve the response being measured. Lower therefore signals higher potency. On to `O=c1oc2c(ccc3ccccc32)c(O)c1Cc1ccccc1` [4-hydroxy-2H-chromen-2-one core, 21], for which the IC50 is 35 nM. Moreover, half-maximal inhibition (25 °C) (IC50) was put at 880 nM.
In turn, `O=c1oc2ccc3ccccc3c2c(O)c1Cc1ccc2ccccc2c1` [4-hydroxy-2H-chromen-2-one core, 23] yielded an IC50 of 6 nM. For the setting “25 °C”, this compound displayed an IC50 of 2370 nM.
